Reference: ChEMBL document CHEMBL3259781 (J Med Chem, 2014)
pEC50, pKd, pKi: −log10 of the molar value. Converted amounts (≈) assume the structure as drawn. “And” between values parts separate entries of the source, which are not always exact repeats. Equal entries are not always repeated. Blank lines part the entries; values can stand above or below the compound they belong to.

How the values were obtained:
[1] = biological target: T1, Adenosine receptor A2a (Homo sapiens, UniProt P29274)
[2] = biological target: T2, Adenosine receptor A1 (Homo sapiens, UniProt P30542)
T2 sequence (P30542 whole entry): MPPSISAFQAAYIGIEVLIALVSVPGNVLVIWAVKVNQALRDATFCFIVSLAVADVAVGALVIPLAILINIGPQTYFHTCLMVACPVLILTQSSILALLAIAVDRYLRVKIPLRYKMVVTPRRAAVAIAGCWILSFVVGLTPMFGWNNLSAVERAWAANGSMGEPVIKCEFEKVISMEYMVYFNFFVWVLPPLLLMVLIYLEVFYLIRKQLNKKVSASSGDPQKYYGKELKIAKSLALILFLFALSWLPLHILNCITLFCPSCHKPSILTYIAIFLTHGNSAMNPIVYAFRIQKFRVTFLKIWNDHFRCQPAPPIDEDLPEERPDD

[3] = system: Rattus norvegicus; assay: Anticataleptic activity in rat assessed as inhibition at 1 mg/kg, po after 1 hr; assay type: functional
[4] = biological target: T3, Adenosine receptor A2b (Homo sapiens, UniProt P29275)
T3 sequence (P29275 whole entry): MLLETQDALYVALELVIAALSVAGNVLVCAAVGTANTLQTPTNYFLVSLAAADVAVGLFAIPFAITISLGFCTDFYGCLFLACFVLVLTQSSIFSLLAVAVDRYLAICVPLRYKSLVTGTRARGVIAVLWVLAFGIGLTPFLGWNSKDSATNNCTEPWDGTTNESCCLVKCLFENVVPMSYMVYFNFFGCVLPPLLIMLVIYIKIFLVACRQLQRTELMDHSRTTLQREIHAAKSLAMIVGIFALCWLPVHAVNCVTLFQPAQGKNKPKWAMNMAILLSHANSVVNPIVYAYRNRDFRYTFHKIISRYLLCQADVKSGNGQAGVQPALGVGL

[5] = Ratio of drug level from brain to plasma in rat; assay type: ADME; settings: read-out: BPR
[6] = species: Rattus norvegicus; assay: Anticataleptic activity in rat assessed as minimum efficacious dose after 1 hr; assay type: functional; settings: read-out: MED
[7] = system: Rattus norvegicus; assay: Anticataleptic activity in rat assessed as inhibition at 1 mg/kg, po after 4 hrs; assay type: functional
[8] = biological target: T4, Adenosine receptor A3 (Homo sapiens, UniProt P0DMS8)
T4 sequence (P0DMS8 whole entry): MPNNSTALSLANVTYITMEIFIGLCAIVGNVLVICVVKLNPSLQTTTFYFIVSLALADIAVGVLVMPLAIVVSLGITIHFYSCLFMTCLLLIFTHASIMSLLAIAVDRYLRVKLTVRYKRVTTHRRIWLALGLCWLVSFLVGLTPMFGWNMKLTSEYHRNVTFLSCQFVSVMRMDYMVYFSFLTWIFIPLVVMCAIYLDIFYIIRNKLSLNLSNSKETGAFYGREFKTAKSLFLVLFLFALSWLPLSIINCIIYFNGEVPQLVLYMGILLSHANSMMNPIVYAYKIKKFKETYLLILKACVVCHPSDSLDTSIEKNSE

[9] = species: Rattus norvegicus; assay: Anticataleptic activity in rat assessed as minimum efficacious dose after 4 hrs; assay type: functional; settings: read-out: MED
[10] = species: Homo sapiens; assay: Selectivity ratio of Ki for human recombinant adenosine A1 receptor to Ki for human recombinant adenosine receptor A2a
[11] = AUC in rat at 3 mg/kg, po; assay type: ADME, organism-based; set-up: dose 3 mg/kg, route oral; settings: plasma
[12] = biological target: T1, Adenosine receptor A2a; remark: listed apart in the source
[13] = species: Rattus norvegicus; assay: Systemic vasodilation in rat; assay type: functional
[14] = biological target: T5, Adenosine receptor A2a (Rattus norvegicus, UniProt P30543)
[15] = biological target: T6, Adenosine receptor A3 (Rattus norvegicus, UniProt P28647); assay: Inhibition of rat recombinant adenosine A3 receptor
T6 sequence (P28647 whole entry): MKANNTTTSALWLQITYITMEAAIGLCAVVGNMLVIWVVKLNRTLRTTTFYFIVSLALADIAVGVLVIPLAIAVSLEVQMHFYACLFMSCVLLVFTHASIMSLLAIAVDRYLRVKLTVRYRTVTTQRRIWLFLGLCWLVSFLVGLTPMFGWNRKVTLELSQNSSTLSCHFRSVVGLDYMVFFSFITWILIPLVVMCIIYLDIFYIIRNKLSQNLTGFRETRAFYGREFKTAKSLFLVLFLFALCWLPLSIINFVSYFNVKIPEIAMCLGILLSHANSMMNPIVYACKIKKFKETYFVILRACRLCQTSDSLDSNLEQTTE

[16] = Half life in dog; assay type: ADME, organism-based, Canis lupus familiaris; settings: in vivo
[17] = Half life in rat; assay type: ADME, organism-based; settings: in vivo
[18] = Plasma clearance in dog; assay type: ADME, organism-based, Canis lupus familiaris
[19] = Volume of distribution in rat; assay type: ADME, organism-based; settings: in vivo
[20] = Plasma clearance in rat; assay type: ADME, organism-based
[21] = Volume of distribution in dog; assay type: ADME, organism-based, Canis lupus familiaris; settings: in vivo
[22] = biological target: T5, Adenosine receptor A2a; assay: Binding affinity to adenosine receptor A2a in rat striatum; assay type: tissue-based
[23] = species: Rattus norvegicus; assay: Selectivity ratio of Ki for rat striatal adenosine A1 receptor to Ki for rat recombinant adenosine receptor A2a
[24] = system: Rattus norvegicus; assay: Anticataleptic activity in rat assessed as inhibition of haloperidol-induced catalepsy at 3 mg/kg, po after 30 mins; assay type: functional; settings: 0.5 h
[25] = species: Rattus norvegicus; assay: Anticataleptic activity in rat assessed as inhibition of haloperidol-induced catalepsy after 1 hr; assay type: functional
[26] = Ratio of drug level from brain to plasma in iv dosed rat after 0.5 hrs; assay type: ADME, organism-based; settings: read-out: BPR
[27] = species: Rattus norvegicus; assay: Anticataleptic activity in rat assessed as inhibition of haloperidol-induced catalepsy after 2 hrs; assay type: functional
[28] = system: Brain; assay: Drug level in rat brain measured per gram at 10 mg/kg, po; assay type: ADME, organism-based; set-up: dose 10 mg/kg, route oral; settings: in vivo
[29] = Solubility of the compound at pH 7.4; assay type: physicochemical; settings: buffer
[30] = system: Plasma; assay: Drug level in rat plasma measured per ml at 10 mg/kg, po; assay type: ADME, organism-based; set-up: dose 10 mg/kg, route oral; settings: in vivo
[31] = system: Mus musculus; assay: Anticataleptic activity in mouse assessed as inhibition of haloperidol-induced catalepsy at 10 mg/kg, po; assay type: functional

T1 sequence (P29274 whole entry): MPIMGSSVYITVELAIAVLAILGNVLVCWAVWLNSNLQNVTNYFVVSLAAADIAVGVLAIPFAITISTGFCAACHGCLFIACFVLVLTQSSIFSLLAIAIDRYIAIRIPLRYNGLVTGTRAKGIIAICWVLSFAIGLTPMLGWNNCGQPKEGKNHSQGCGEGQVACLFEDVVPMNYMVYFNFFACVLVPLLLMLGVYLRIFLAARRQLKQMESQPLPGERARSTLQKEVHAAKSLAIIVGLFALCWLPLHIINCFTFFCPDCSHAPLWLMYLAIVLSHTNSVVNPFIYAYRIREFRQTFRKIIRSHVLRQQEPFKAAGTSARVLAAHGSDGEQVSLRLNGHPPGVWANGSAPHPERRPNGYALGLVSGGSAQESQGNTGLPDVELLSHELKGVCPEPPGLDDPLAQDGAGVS
T5 sequence (P30543 whole entry): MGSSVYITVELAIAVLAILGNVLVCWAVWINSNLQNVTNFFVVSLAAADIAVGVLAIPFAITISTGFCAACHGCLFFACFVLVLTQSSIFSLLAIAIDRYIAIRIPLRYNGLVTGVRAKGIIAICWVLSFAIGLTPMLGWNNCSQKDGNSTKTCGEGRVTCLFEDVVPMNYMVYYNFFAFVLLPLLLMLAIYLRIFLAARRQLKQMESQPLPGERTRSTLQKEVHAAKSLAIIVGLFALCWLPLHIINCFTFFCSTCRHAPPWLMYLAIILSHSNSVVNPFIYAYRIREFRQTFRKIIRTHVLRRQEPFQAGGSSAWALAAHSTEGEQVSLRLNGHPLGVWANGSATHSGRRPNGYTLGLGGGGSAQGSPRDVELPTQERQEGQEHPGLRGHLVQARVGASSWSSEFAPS

SMILES: CCn1nnc([C@H]2O[C@@H](n3cnc4c(N)nc(N[C@H](CO)Cc5ccccc5)nc43)[C@H](O)[C@@H]2O)n1 [GW-328267]
- pEC50 [1]: 8.05

SMILES: Nc1nc(N/N=C/C2CCCCC2)nc2c1ncn2[C@@H]1O[C@H](CO)[C@@H](O)[C@H]1O [BINODENOSON]
- ED50 [13]: 0.31 mg

SMILES: COc1ccc(N2CCOCC2)c2sc(NC(=O)N3CCC(C)(O)CC3)nc12 [TOZADENANT]
- pKi [2]: 5.87
- half-life [16]: 2.2 h
- half-life [17]: 4 h
- clearance [18]: 8 mL/min/kg
- Vd [19]: 1.4 L/kg
- clearance [20]: 11 mL/min/kg
- Vd [21]: 1.2 L/kg

SMILES: Nc1nc(N2CCN3CCC[C@@H]3C2)cc2nc(-c3ccco3)nn12
- Ratio Ki [23]: 17
- inhibition in vivo at 3 mg/kg [24]: > 50%

SMILES: Cc1cc(-c2nnc(N)nc2-c2ccccc2)cc(C(F)(F)F)n1
- ED50 [25]: 0.2 mg/kg
- pKi [2]: 7.51
- Kp at 0.5 h [26]: 3.2
- ED50 [27]: 0.2 mg/kg

SMILES: COC1CCN(c2cccc(-c3cc(NC(C)=O)nc(-n4nc(C)cc4C)n3)n2)CC1
- Drug uptake [28]: 560 ng/g
- pKi [2]: 7.11
- solubility [29]: 30 µg/mL (≈ 71.2 µM)
- Ratio Ki [10]: 193
- Cp [30]: 150 ng/mL
- inhibition in vivo at 10 mg/kg [31]: 88%
- pKi [12]: 9.40

Further lines, with some results ahead:

- pKi [2]: < 6.00
- pKi [4]: < 5.77
- Kp [5]: 1
- pKi [8]: < 6.00
- Ratio Ki [10]: > 1660 and 1340
- AUC [11]: 1560 ng·h/mL
- pKi [12]: 9.22
SMILES: COCCOc1ccc(N2CCN(CCn3ncc4c3nc(N)n3nc(-c5ccco5)nc43)CC2)cc1 [PRELADENANT]
- inhibition (INH) ([3]; 1 mg/kg): 77%
- inhibition in vivo at 1 mg/kg ([3]; Rattus norvegicus, po, 1 h): 75%
- minimal effective dose [6]: 0.3 mg/kg
- inhibition (INH) ([7]; 1 mg/kg): 70%
- inhibition in vivo at 1 mg/kg ([7]; Rattus norvegicus, po, 4 h): 80%
- minimal effective dose [9]: 0.3 mg/kg

- pKi [4]: 5.54
- pKi [14]: 8.30
- pKi [15]: < 5.00
SMILES: C#CCn1c(=O)c2c(nc(/C=C/c3cccc(OC)c3)n2C)n(CCCO)c1=O

- pKd [22]: 9.15
- pKi [8]: 5.92
SMILES: Nc1nc2c(cnn2CCc2ccccc2)c2nc(-c3ccco3)nn12 [SCH-58261]
